Results as given in patent US10172868B2, “Substituted quinazolines for inhibiting kinase activity” (NeuPharma, Inc., priority 2013, dated 2019).

Molecular target: FGFR2 (Homo sapiens (Human), UniProt P21802)
Assay: Z'-LYTE kinase inhibition assay, FGFR2
Assay type: biochemical
Conditions: read-out: IC50 against FGFR2
Method: Inhibitory activities of compounds against BTK, EGFR and EGFR mutants (EGFR L858R, EGFR T790M, EGFR L858R/T790M), FGFR1, FGFR2, JAK2, JAK3 and KDR were measured by Invitrogen using Z'-LYTE® Method as briefly described in the following.
Test Compounds are screened in 1% DMSO (final) in the well. For 10 point titrations, 3-fold serial dilutions are conducted from the starting concentration. All ATP Solutions are diluted to a 4× working concentration in Kinase Buffer (50 mM HEPES pH 7.5, 0.01% BRIJ-35, 10 mM MgCl2, 1 mM EGTA). Peptide/Kinase Mixtures are diluted to a 2× working concentration in the appropriate Kinase Buffers as described below.
(v) Peptide/Kinase Mixtures for Measurement of FGFR2:
The 2×FGFR2/Tyr 04 mixture is prepared in 50 mM HEPES pH 7.5, 0.01% BRIJ-35, 10 mM MgCl2, 4 mM MnCl2, 1 mM EGTA, 2 mM DTT. The final 10 μL Kinase Reaction consists of 0.19-2.36 ng FGFR2 and 2 μM Tyr 04 in 50 mM HEPES pH 7.5, 0.01% BRIJ-35, 10 mM MgCl2, 2 mM MnCl2, 1 mM EGTA, 1 mM DTT. After the 1 hour Kinase Reaction incubation, 5 μL of a 1:64 dilution of Development Reagent B is added.
Reaction starts by 30-second shaking of mixture consisting of 2.5 μL 4× test compound, […] 2× kinase reaction mixture and 2.5 μL 4×ATP Solution on Bar-coded Corning, low volume NBS, black 384-well plate (Corning Cat. #3676). […] Finally fluorescence is read by plate reader. […]

Sequence of FGFR2 (P21802 22-821): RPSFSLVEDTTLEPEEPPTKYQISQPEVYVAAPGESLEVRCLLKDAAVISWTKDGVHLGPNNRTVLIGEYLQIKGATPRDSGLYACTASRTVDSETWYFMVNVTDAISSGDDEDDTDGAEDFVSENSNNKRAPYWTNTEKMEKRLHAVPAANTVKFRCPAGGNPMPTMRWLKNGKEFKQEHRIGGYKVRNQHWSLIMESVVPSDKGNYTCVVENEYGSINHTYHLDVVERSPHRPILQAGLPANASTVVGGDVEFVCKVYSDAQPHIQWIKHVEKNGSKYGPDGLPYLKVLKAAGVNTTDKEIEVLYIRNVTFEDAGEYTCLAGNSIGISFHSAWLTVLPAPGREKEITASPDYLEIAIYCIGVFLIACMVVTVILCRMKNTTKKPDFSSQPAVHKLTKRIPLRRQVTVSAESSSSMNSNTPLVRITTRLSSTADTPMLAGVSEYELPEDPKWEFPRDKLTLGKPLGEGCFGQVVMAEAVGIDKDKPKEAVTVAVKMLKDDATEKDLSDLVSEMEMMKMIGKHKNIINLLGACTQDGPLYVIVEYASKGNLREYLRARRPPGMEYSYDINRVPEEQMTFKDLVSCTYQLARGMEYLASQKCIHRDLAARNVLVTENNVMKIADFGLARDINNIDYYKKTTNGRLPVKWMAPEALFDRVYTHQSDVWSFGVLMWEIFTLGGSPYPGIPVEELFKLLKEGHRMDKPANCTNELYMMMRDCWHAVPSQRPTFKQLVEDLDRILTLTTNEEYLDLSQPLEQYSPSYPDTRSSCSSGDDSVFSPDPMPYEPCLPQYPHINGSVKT

## C=CC(=O)Nc1cccc(-c2cccc3cnc(Nc4ccc(N5CCN(C)CC5)cc4)nc23)c1 [Example C021, N-(3-(2-((4-(4-methylpiperazin-1-yl)phenyl)amino)quinazolin-8-yl)phenyl)acrylamide]
  IC50: < 100 nM
